Earlier results in article PMC7992119 (Structure (London, England : 1993), 2019).
One block for each substance: values may come before it. Where no end group is shown, it is not given here. The star is where a group is joined. Octanoyl = CCCCCCCC(=O)*

Legend:
GHSR [1] = conditions: ref Bednarek et al., 2000
ET-B = conditions: mutation of known crystal contacts; ref Shihoya et al., 2016
GHSR [2] = system: GHSR

Substance: des-acyl ghrelin
activity at GHSR of des-acyl versus lipidated form (GHSR [1]): only the lipidated form is active at GHSR

maximal decrease of binding (ET-B): ≤ 10 fold
Substance: endothelin-1

Substance: ghrelin: 28-amino acid peptide with n-octanoylation at its Ser^3 residue (GSS(Octanoyl)FLSPEHQRVQQRKESKKPPAKLQPR; UniProt Q9UBU3 24-51, looked up)
affinity of the C terminus for the receptor (GHSR [2]; C terminus of ghrelin (beyond residue 17), ref Bednarek et al., 2000): the C terminus has no affinity for the receptor and does not enhance ligand binding over truncated variants
affinity to GHSR versus the membrane (GHSR [2]; qualitative statement, no reference given): much higher than to the membrane
